Key:
[1] = test system: GP5d (Colorectal Carcinoma); experiment: combination Emax (second highest fraction inhibited in the dose matrix, 72 h); higher = more inhibition; extreme values may be limits of the assay
Summary of the method: (§1)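 Cell lines in DMEM/F12 or RPMI with 10% FBS were plated in 1536-well plates, held 24 hours at 37°C, 5% CO2, then given two-drug dose matrices for 72 hours (DMSO typically 0.2%). Viability was read by CellTiter-Glo 2.0 luminescence and scaled as inhibition from 0 (vehicle wells) to 1 (blank wells). Combination Emax is the second-highest inhibition in the matrix; Bliss excess is observed combination effect minus expected EA + EB − EA·EB, EA and EB being single-agent effects.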

SK-MEL-2 (Melanoma) [2] = experiment: as above
Summary of the method: as §1

[3] = test system: LB996-RCC (Kidney Carcinoma); experiment: as above
Summary of the method: as §1

[4] = test system: PSN1 (Pancreatic Carcinoma); experiment: as above
Summary of the method: as §1

NB12 (Neuroblastoma) [5] = experiment: as above
Summary of the method: as §1

[6] = test system: REH (B-Lymphoblastic Leukemia); experiment: as above
Summary of the method: as §1

[7] = test system: RERF-LC-Sq1 (Squamous Cell Lung Carcinoma); experiment: as above
Summary of the method: as §1

[8] = test system: HSC-39 (Gastric Carcinoma); experiment: as above
Summary of the method: as §1

SK-MEL-2 (Melanoma) [9] = experiment: Bliss excess, mean over the matrix (fraction); higher = more synergy
Summary of the method: as §1

NB12 (Neuroblastoma) [10] = experiment: as above
Summary of the method: as §1
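Wherever Bliss excess, mean over the matrix is given: after 72 h of two-drug dosing.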

COc1nnc2ccc(N3CCC(c4ccc(OCCN5CCN(C)C(=O)[C@H]5C)cc4)CC3)nn12 [AZD5153] + Cn1cnc2c(F)c(Nc3ccc(Br)cc3Cl)c(C(=O)NOCCO)cc21 [Selumetinib] (first compound max 1 µM, 7x7, partner max 10 µM)
combination Emax [1]: 0.887
combination Emax (SK-MEL-2 (Melanoma) [2]): 0.926
combination Emax [3]: 0.482
combination Emax [4]: 0.818
combination Emax (NB12 (Neuroblastoma) [5]): 0.799
combination Emax [6]: 0.469
combination Emax [7]: 0.79
combination Emax [8]: 0.76
Bliss excess (SK-MEL-2 (Melanoma) [9]): -0.0349
Bliss excess (NB12 (Neuroblastoma) [10]): -0.0428

NC1(C(=O)N[C@@H](CCO)c2ccc(Cl)cc2)CCN(c2ncnc3[nH]ccc23)CC1 [Capivasertib] + C[C@@H]1COCCN1C2=NC(=NC(=C2)C3(CC3)[S@](=N)(=O)C)C4=C5C=CNC5=NC=C4 [AZD6738] (first compound max 10 µM, 7x7, partner max 10 µM)
combination Emax [1]: 0.829
combination Emax (SK-MEL-2 (Melanoma) [2]): 0.152
combination Emax [3]: 0.823
combination Emax [4]: 0.536
combination Emax (NB12 (Neuroblastoma) [5]): 0.738
combination Emax [6]: 0.933
combination Emax [7]: 0.873
combination Emax [8]: 1
Bliss excess (SK-MEL-2 (Melanoma) [9]): -0.0335
Bliss excess (NB12 (Neuroblastoma) [10]): -0.0449

NC1(C(=O)N[C@@H](CCO)c2ccc(Cl)cc2)CCN(c2ncnc3[nH]ccc23)CC1 [Capivasertib] + CC(=O)c1c(C)c2cnc(Nc3ccc(N4CCNCC4)cn3)nc2n(C2CCCC2)c1=O [Palbociclib] (first compound max 10 µM, 7x7, partner max 10 µM)
combination Emax [1]: 0.648
combination Emax (SK-MEL-2 (Melanoma) [2]): 0.0717
combination Emax [3]: 0.781
combination Emax [4]: 0.484
combination Emax (NB12 (Neuroblastoma) [5]): 0.399
combination Emax [6]: 0.609
combination Emax [7]: 0.873
combination Emax [8]: 0.749
Bliss excess (SK-MEL-2 (Melanoma) [9]): -0.0408
Bliss excess (NB12 (Neuroblastoma) [10]): 0.0139

CC(=O)c1c(C)c2cnc(Nc3ccc(N4CCNCC4)cn3)nc2n(C2CCCC2)c1=O [Palbociclib] + Cc1c2c(nn1C)CSCc1cc(n(C)n1)CSc1cc(c3ccccc3c1)OCCCc1c(C(=O)O)n(C)c3c-2c(Cl)ccc13 [AZD5991] (first compound max 10 µM, 7x7, partner max 1 µM)
combination Emax [1]: 0.881
combination Emax (SK-MEL-2 (Melanoma) [2]): 0.905
combination Emax [3]: 0.397
combination Emax [4]: 0.564
combination Emax (NB12 (Neuroblastoma) [5]): 0.357
combination Emax [6]: 0.835
combination Emax [7]: 0.594
combination Emax [8]: 0.995
Bliss excess (SK-MEL-2 (Melanoma) [9]): -0.045
Bliss excess (NB12 (Neuroblastoma) [10]): 0.0159

Cn1cnc2c(F)c(Nc3ccc(Br)cc3Cl)c(C(=O)NOCCO)cc21 [Selumetinib] + C=CCn1c(=O)c2cnc(Nc3ccc(N4CCN(C)CC4)cc3)nc2n1-c1cccc(C(C)(C)O)n1 [AZD1775] (first compound max 10 µM, partner max 1 µM)
combination Emax [1]: 0.888
combination Emax (SK-MEL-2 (Melanoma) [2]): 0.831
combination Emax [3]: 0.717
combination Emax [4]: 0.736
combination Emax (NB12 (Neuroblastoma) [5]): 0.674
combination Emax [6]: 0.62
combination Emax [7]: 0.666
combination Emax [8]: 0.82
Bliss excess (SK-MEL-2 (Melanoma) [9]): 0.0533
Bliss excess (NB12 (Neuroblastoma) [10]): -0.0517

COc1cc2ncnc(Nc3ccc(F)c(Cl)c3)c2cc1OCCCN1CCOCC1 [Gefitinib] + CC(C)n1c(=O)n(C)c2cnc3cc(F)c(-c4ccc(OCCCN5CCCCC5)nc4)cc3c21 [AZD1390] (first compound max 10 µM, 7x7, partner max 0.3 µM)
combination Emax [1]: 0.281
combination Emax (SK-MEL-2 (Melanoma) [2]): 0.169
combination Emax [3]: 0.391
combination Emax [4]: 0.102
combination Emax (NB12 (Neuroblastoma) [5]): 0.139
combination Emax [6]: 0.145
combination Emax [7]: 0.543
combination Emax [8]: 0.217
Bliss excess (SK-MEL-2 (Melanoma) [9]): -0.0348
Bliss excess (NB12 (Neuroblastoma) [10]): -0.0668

CS(=O)(=O)CCNCc1ccc(-c2ccc3ncnc(Nc4ccc(OCc5cccc(F)c5)c(Cl)c4)c3c2)o1 [Lapatinib] + C[C@@H](Oc1cc(-c2cnn(C3CCNCC3)c2)cnc1N)c1c(Cl)ccc(F)c1Cl [Crizotinib] (first compound max 10 µM, 7x7, partner max 10 µM)
combination Emax [1]: 0.979
combination Emax (SK-MEL-2 (Melanoma) [2]): 0.62
combination Emax [3]: 0.98
combination Emax [4]: 0.806
combination Emax (NB12 (Neuroblastoma) [5]): 0.843
combination Emax [6]: 0.964
combination Emax [7]: 0.949
combination Emax [8]: 0.981
Bliss excess (SK-MEL-2 (Melanoma) [9]): -0.0232
Bliss excess (NB12 (Neuroblastoma) [10]): -0.0622

COc1nnc2ccc(N3CCC(c4ccc(OCCN5CCN(C)C(=O)[C@H]5C)cc4)CC3)nn12 [AZD5153] + C[C@@H]1COCCN1C2=NC(=NC(=C2)C3(CC3)[S@](=N)(=O)C)C4=C5C=CNC5=NC=C4 [AZD6738] (first compound max 1 µM, 7x7, partner max 10 µM)
combination Emax [1]: 0.855
combination Emax (SK-MEL-2 (Melanoma) [2]): 0.693
combination Emax [3]: 0.731
combination Emax [4]: 0.586
combination Emax (NB12 (Neuroblastoma) [5]): 0.958
combination Emax [6]: 0.96
combination Emax [7]: 0.801
combination Emax [8]: 1
Bliss excess (SK-MEL-2 (Melanoma) [9]): 0.0037
Bliss excess (NB12 (Neuroblastoma) [10]): 0.0067

CC(=O)c1c(C)c2cnc(Nc3ccc(N4CCNCC4)cn3)nc2n(C2CCCC2)c1=O [Palbociclib] + CC1(C)CCC(CN2CCN(c3ccc(C(=O)NS(=O)(=O)c4ccc(NCC5CCOCC5)c([N+](=O)[O-])c4)c(Oc4cnc5[nH]ccc5c4)c3)CC2)=C(c2ccc(Cl)cc2)C1 [Venetoclax] (first compound max 10 µM, 7x7, partner max 1 µM)
combination Emax [1]: 0.31
combination Emax (SK-MEL-2 (Melanoma) [2]): 0.11
combination Emax [3]: 0.318
combination Emax [4]: 0.437
combination Emax (NB12 (Neuroblastoma) [5]): 0.614
combination Emax [6]: 0.825
combination Emax [7]: 0.436
combination Emax [8]: 0.633
Bliss excess (SK-MEL-2 (Melanoma) [9]): -0.0492
Bliss excess (NB12 (Neuroblastoma) [10]): 0.0237

COc1nnc2ccc(N3CCC(c4ccc(OCCN5CCN(C)C(=O)[C@H]5C)cc4)CC3)nn12 [AZD5153] + CCN(CCO)CCCOc1ccc2c(Nc3cc(CC(=O)Nc4cccc(F)c4)[nH]n3)ncnc2c1 [AZD2811] (first compound max 1 µM, 7x7, partner max 1 µM)
combination Emax [1]: 0.728
combination Emax (SK-MEL-2 (Melanoma) [2]): 0.485
combination Emax [3]: 0.534
combination Emax [4]: 0.566
combination Emax (NB12 (Neuroblastoma) [5]): 0.937
combination Emax [6]: 0.903
combination Emax [7]: 0.555
combination Emax [8]: 0.952
Bliss excess (SK-MEL-2 (Melanoma) [9]): -0.0912
Bliss excess (NB12 (Neuroblastoma) [10]): 0.0269
